By IC50 is commonly meant the concentration that gives 50% inhibition.

The subject of test [1] is H2O2 level in Colo357 cell line. The experiment in a line: Measurement of H2O2 level in Colo357 cell line (FIG. 8A). The conditions noted are these: CPPD 20 μmol·L−1, Doxo 25 μmol·L−1. The format is cell-based.
Protocol: Intracellular H2O2 production in live cells was measured using Total ROS/superoxide detection kit (Enzo life science), following the manufacturer's instructions. The assay uses specific H2O2/RNS probes that upon reaction with H2O2 and RNS species are oxidized rapidly to highly fluorescent compounds. Fluorescence intensity is proportional to the total H2O2/RNS levels within the sample. […] The day before the analysis, cells were seeded in 96-well black/clear bottom plates at a density of 2×10^4 in culture media according to cell suppliers instructions, supplemented with FBS (10% v/v), 10 units of penicillin/ml and 100 mg of streptomycin. Cells were kept at 37° C. in a humid atmosphere of 95% air: 5% CO2 overnight. […] After the incubation period, wells were loaded with 100 μL of H2O2 Detection Solution, containing the respective treatment agent or controls and incubated for 60 min at 37° C. in the dark. Several wells were left without cells for the background fluorescence control measurements. Plates were read using Appliskan fluorescence microplate reader (Thermo Scientific) (ex=560 nm, Em=600). Data are expressed as the change in arbitrary fluorescence units produced from equal amount of cells and normalized to total protein input.
In a further test the test system is Colo357. The experiment in a line: Viability of Colo357 cells under combination treatment (FIG. 8B). The conditions noted are these: Colo357 (high GSH), combination treatment with S-methyl 4-(dimethylamino)-4-methylpent-2-ynethioate. The format is cell-based.
Another test relates to THP-1. The experiment in a line: Cell viability assay (Rezasurin), 96 well format. The format is cell-based. The conditions noted are these: Homo sapiens, 48 h.
Another test deals with HCC827. The experiment in a line: Cell viability assay (Rezasurin), 96 well format. The conditions noted are these: Homo sapiens, 48 h, DIMATE alone or with PCN 40 μM, read-out: abs.IC50. The format is cell-based.
A further test concerns Hop62. The experiment in a line: Cell viability assay (Rezasurin), 96 well format. The format is cell-based. The conditions noted are these: Homo sapiens, HOP-62, 48 h, DIMATE alone or with PCN 40 μM, read-out: abs.IC50.
The next test concerns HL-60, NT2/D1. The experiment in a line: Quantification of MDA and HNE adducts by ELISA in sensitive cells. The format is cell-based, human. The conditions noted are these: 5 or 10 μmol·L^−1, 24 hours. As for the experimental part:
(§1) Quantitative Determination of FINE-Protein and MDA/Protein Adducts by ELISA
(§2) The formation of HNE-adducts and MDA-adducts was quantified with the Oxiselect HNE Adduct Elisa kit (Cell Biolabs, San Diego, Calif.) and the OxiSelect MDA Adduct ELISA Kit (Cell Biolabs), respectively. Briefly, after a treatment with S-methyl 4-(dimethylamino)-4-methylpent-2-ynethioate during 24 hours, cells were lysed by sonication in reducing SDS Sample Buffer. Homogenates were diluted to 10 μg protein/mL and adsorbed in 96-well protein binding plates by incubation at 37° C. for at least 2 hours. Wells were washed twice with PBS and incubated for an additional 2 hours at room temperature on an orbital shaker. Following three washes in PBS, 100 μL of anti-HNE antibody or anti-MDA antibody were added to the wells and incubated for 1 hour at room temperature. Subsequently, goat anti-rabbit secondary antibody-HRP conjugate (diluted 1/1000 with the assay diluent) was added and incubation continued for 1 hour. Wells were washed five times in PBS and HRP-substrate was added. Reaction was stopped with an acidic solution, and absorbance read on a microplate reader at 450 nm. The level of HNE-adducts and of MDA-adducts was determined by comparison with a standard curve prepared from HNE-BSA and MDA-BSA standards supplied by the manufacturer.
(In an ELISA, binding on a coated surface is turned into a signal by an enzyme label.)

A further test relates to MSC. The experiment in a line: Quantification of MDA and HNE adducts by ELISA in resistant cells. The format is cell-based. The conditions noted are these: 5 or 10 μmol·L^−1, 24 hours. The protocol: as §1, §2
For test [2] the following is noted: cited from earlier work.
A further test deals with H2O2 levels. Put plainly: Measurement of H2O2 production after cell exposure to pyocianin. The format is cell-based, human. The conditions noted are these: pyocianin 40 μM. The protocol:
Measurement of H2O2 Production
Intracellular H2O2 production in live cells was measured using Total ROS/superoxide detection kit (Enzo life science), following the manufacturer's instructions. The assay uses specific H2O2/RNS probes that upon reaction with H2O2 and RNS species are oxidized rapidly to highly fluorescent compounds. Fluorescence intensity is proportional to the total H2O2/RNS levels within the sample. […] The day before the analysis, cells were seeded in 96-well black/clear bottom plates at a density of 2×10^4 in culture media according to cell suppliers instructions, supplemented with FBS (10% v/v), 10 units of penicillin/ml and 100 […]. Cells were kept at 37° C. in a humid atmosphere of 95% air: 5% CO2 overnight. On the day of the analysis, cells media was replaced by 100 μL of phenol free-media supplemented as above, without any treatment, with S-methyl 4-(dimethylamino)-4-methylpent-2-ynethioate for 6 hours, vehicle HEPES for 6 hours, or with the different control agents PCN and NAC for 20 min. […] Several wells were left without cells for the background fluorescence control measurements. Plates were read using Appliskan fluorescence microplate reader (Thermo Scientific) (ex=560 nm, Em=600). Data are expressed as the change in arbitrary fluorescence units produced from equal amount of cells and normalized to total protein input.

The next test relates to cancer cells. The experiment in a line: Cell viability after exposure to pyocianin. The format is cell-based, human. The conditions noted are these: pyocianin 40 μM. The protocol:
Cells were seeded into 96-well cell culture plates at concentrations required to ensure approximately 80% confluence in control (untreated cells) at the end of experiment (0.5×10^4-5×10^4 cell/well). The sensitivity towards S-methyl 4-(dimethylamino)-4-methylpent-2-ynethioate was determined using different concentrations of the drug (from 0.01 to 100 μM). After 48 hours, the growth-inhibitory effect of the drug was analyzed using Rezasurin, according to manufactures instruction. To ensure good data quality and to minimize impact of pipetting errors, each particular drug concentration was assessed based on mean fluorescence intensity from 8 separate wells. The drug response was quantified by the half maximal inhibitory concentration (IC50) for each particular cell line, and determined by non-linear regression analysis of log-dose/response curves. Cut-off value for resistance to S-methyl 4-(dimethylamino)-4-methylpent-2-ynethioate was determined statistically (>2 S.D. above the IC50 geometric mean). The in-vitro threshold value for hypersensitivity to the drug has been defined as <IC50 geometric mean.
In a different experiment, cells showing resistance to S-methyl 4-(dimethylamino)-4-methylpent-2-ynethioate (THP-1, HCC827, and Hop62) were challenged with H2O2 inducer. […]

Read-outs that look alike come from different tables or passages of the source. A value given as a limit tells only on which side of the number the result lay.

`N.N.[Cl][Pt][Cl]` [CPPD, Cisplatin]: the “increase of H2O2 level” value in test [1] is on record as 200%. For the same compound, the effect on viability result in the test with Colo357 is “no effect”.
As for `CSC(=O)C#CC(C)(C)N(C)C` [DIMATE, S-methyl 4-(dimethylamino)-4-methylpent-2-ynethioate], the IC50 in the test on THP-1 (THP-1, DIMATE alone or with PCN 40 μM, read-out: abs.IC50) was determined as 46 µM; in the test on THP-1 (THP-1 resistant cells, DIMATE alone or with H2O2 inducer at fixed concentration (2-ME 100 μM, ATO 1 μM, Daunorubicine 40 nM, Doxorubicine 20 nM, Etoposide 500 nM, Mitoxanthrone 50 nM, Parthenolide 100 nM, Piperlongumine 2 μM), read-out: IC50), 46 µM; with HCC827 it was 25 µM; with Hop62 it was 39 µM. The HNE-adducts level in the test with HL-60, NT2/D1 is given as > 1 μg per μg of total protein; in the test with MSC, < 1 μg per μg of total protein. Further, the MDA-adducts level entry in the test on HL-60, NT2/D1 is “above 100 ng per μg of total protein”; with MSC, < 100 ng per μg of total protein.
With `COc1cccc2c1C(=O)c1c(O)c3c(c(O)c1C2=O)C[C@@](O)(C(=O)CO)C[C@@H]3O[C@H]1C[C@H](N)[C@H](O)[C@H](C)O1` [Doxo, Doxorubicin], in [1], the “increase of H2O2 level” value is on record as 10 000%. Also, the effect on viability result with Colo357 is given as “no effect”.
For `CC(=O)N[C@@H](CS)C(=O)O` [NAC, N-acetyl-L-cysteine], the “rate constant, scavenging of hydroxy radicals” value in test [2] (hydroxy radicals) is 1.36×10^10 M^−1,s^−1. Further, the “reaction with superoxide anion” value in test [2] (superoxide anion) is “no reaction”.
On to `Cn1c2cccc(=O)c-2nc2ccccc21` [pyocianin, pyocyanin], for which, in the test on H2O2 levels, the “increase in H2O2 levels” value is listed as “two-fold increase”. Also, the “effect on cell viability” value with cancer cells was “without affecting cell viability”.

The values above are taken from US10406125B2, “Combination comprising an aminothiolester compound or a pharmaceutically acceptable salt thereof and a compound able to increase the H2O2 level in cancer cells of a subject” (ADVANCED BIODESIGN, priority 2015, dated 2019).
